Tests used:
Assay type in all cases: functional
[1] = Synergistic cytotoxicity against human NB-1771 cells assessed as combination index at ED 50 measured after 72 hrs in presence of concurrent treatment of […] inhibitor CI-1040 by Cell-titer Glo reagent assay
NCI-H2122 = assay: Synergistic cytotoxicity against human NCI-H2122 cells expressing KRAS mutant assessed as combination index at ED 50 measured after 72 hrs in presence of MEK inhibitor GSK1120212 by Cell-titer Glo reagent assay
ASPC1 [2] = assay: Synergistic cytotoxicity against human ASPC1 cells assessed as combination index at ED 50 measured after 72 hrs in presence of MEK inhibitor GSK1120212 by Cell-titer Glo reagent assay
YAPC = assay: Synergistic cytotoxicity against human […] cells expressing KRAS mutant assessed as combination index at ED 50 measured after 72 hrs in presence of MEK inhibitor GSK1120212 by Cell-titer Glo reagent assay
NCI-H460 = assay: Synergistic cytotoxicity against human NCI-H460 cells expressing KRAS mutant assessed as combination index at ED75 measured after 72 hrs in presence of MEK inhibitor GSK1120212 by Cell-titer Glo reagent assay
NCI-H1563 = assay: Synergistic cytotoxicity against human NCI-H1563 cells assessed as combination index at ED75 measured after 72 hrs in presence of MEK inhibitor GSK1120212 by Cell-titer Glo reagent assay
SW900 = assay: Synergistic cytotoxicity against human SW900 cells expressing KRAS mutant assessed as combination index at ED75 measured after 72 hrs in presence of MEK inhibitor GSK1120212 by Cell-titer Glo reagent assay
CAPAN-1 = assay: Synergistic cytotoxicity against human CAPAN-1 cells expressing KRAS mutant assessed as combination index at ED75 measured after 72 hrs in presence of MEK inhibitor GSK1120212 by Cell-titer Glo reagent assay
SW1990 = assay: Synergistic cytotoxicity against human SW1990 cells expressing KRAS mutant assessed as combination index at ED75 measured after 72 hrs in presence of MEK inhibitor GSK1120212 by Cell-titer Glo reagent assay
HuP-T4 = assay: Synergistic cytotoxicity against human HuP-T4 cells expressing KRAS mutant assessed as combination index at ED75 measured after 72 hrs in presence of MEK inhibitor GSK1120212 by Cell-titer Glo reagent assay
ASPC1 [3] = assay: Synergistic cytotoxicity against human ASPC1 cells expressing KRAS mutant assessed as combination index at ED75 measured after 72 hrs in presence of MEK inhibitor GSK1120212 by Cell-titer Glo reagent assay
SW-620 = assay: Synergistic cytotoxicity against human SW620 cells expressing KRAS mutant assessed as combination index at ED75 measured after 72 hrs in presence of MEK inhibitor GSK1120212 by Cell-titer Glo reagent assay

## CC(C)Oc1ccc(C(=O)N[C@H](CNC(=O)CN(C)C)Cc2ccc(-c3cn4cccc([C@H](C)O)c4n3)cc2)cc1Cl [GSK-923295A]
[1]
  CI: 0.136
NCI-H2122
  CI: 0.85
ASPC1 [2]
  CI: 0.566
YAPC
  CI: 0.659
NCI-H460
  CI: 0.294
NCI-H1563
  CI: 0.243
SW900
  CI: 0.653
CAPAN-1
  CI: 0.091
SW1990
  CI: 0.103
HuP-T4
  CI: 0.892
ASPC1 [3]
  CI: 0.323
SW-620
  CI: 0.289
